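Growth conditions: 96-well plates. Treatment: test compound, 48 hours, 5 concentrations. Analysis: linear interpolation between bracketing concentrations; unreached endpoints set to highest concentration. Abbreviation: GI50, concentration required for 50% inhibition of growth. The concentration for full growth arrest is given as TGI.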
Key:
Experiment in all cases: inhibition of tumour cell growth, NCI panel, 48 h
[1] = test system: IGROV1 ovarian
[2] = test system: SNB-75 CNS
[3] = test system: HCC-2998 colon
[4] = test system: MALME-3M melanoma
[5] = test system: RPMI-8226 leukemia
[6] = test system: SK-OV-3 ovarian
[7] = test system: OVCAR-5 ovarian
[8] = test system: TK-10 renal
[9] = test system: U251 CNS
[10] = test system: HCT-116 colon

Structure (SMILES)	GI50 [1] [µM]	TGI [1] [µM]	GI50 [2] [µM]	TGI [2] [µM]	GI50 [3] [µM]	TGI [3] [µM]	GI50 [4] [µM]	TGI [4] [µM]	GI50 [5] [µM]	TGI [5] [µM]	GI50 [6] [µM]	TGI [6] [µM]	GI50 [7] [µM]	TGI [7] [µM]	GI50 [8] [µM]	TGI [8] [µM]	GI50 [9] [µM]	TGI [9] [µM]	GI50 [10] [µM]	TGI [10] [µM]
CCCCNC(=O)Oc1ccc2c(=O)c3sc4c(=O)c5ccccc5c(=O)c4c3c(=O)c2c1	2.23	6.72	0.189	0.421	0.511	2.01	0.117	0.273	1.16	4.42	1.4	2.8	2.02	4.55	2.19	3.78	1.02	2.26	0.334	1.76
CC(C)(C)N1CC(OC(N)=O)C1	> 100	> 100	> 100	> 100	> 100	> 100	> 100	> 100	> 100	> 100	> 100	> 100	> 100	> 100	> 100	> 100	> 100	> 100	> 100	> 100
NC1=NC(c2ccccc2)CC(c2cc(Cl)cc(Br)c2O)=N1 (configuration not stated)		30.8		28.3		26.4		15.9		33.6		42.7		34.4		37.3		26.4		25.8
C[C@@H](Oc1cc(NS(=O)(=O)N2CCC2)nc(SCc2cccc(F)c2F)n1)[C@@H](O)CO	> 100	> 100	> 100	> 100	> 100	> 100	> 100	> 100	> 100	> 100	> 100	> 100	> 100	> 100	> 100	> 100	> 100	> 100	> 100	> 100
COc1cc2ccnc3c2c(c1OC)CC1CC(O)C(OC)CC31 (configuration not stated)		> 100		> 100		> 100		> 100		> 100		> 100		> 100		> 100		> 100		> 100
COc1ccccc1N1CCN(C(=O)c2ccc(NS(=O)(=O)c3cccc4cccnc34)cc2)CC1	> 78.4	> 100	10.1	> 53.7	> 100	> 100	> 100	> 100	> 100	> 100	> 45.5	> 83.3	> 100	> 100	> 64.1	> 100	78.2	> 100	> 94.2	> 100
CNC(=O)c1cncc(/C=C/c2c(C)cccc2C)c1	12.9	> 25	4.83	> 18.2	> 25	> 25	16	> 25	> 25	> 25	> 25	> 25	> 25	> 25	> 20.9	> 25	> 25	> 25	> 25	> 25
O=C1c2cccc3cc([N+](=O)[O-])cc(c23)C(=O)N1CCN1CCCC1	0.276	5.16	0.388	2.27	0.582	2.74	0.18	1.07	0.203	1.27	0.252	1.11	1.78	> 19.7	0.697	2.52	0.315		0.441	> 100
CC(C)Cc1ccc(C(C)/C=C2\CCC(CN3CCCC3)C2=O)cc1 (configuration not stated)		19		30		19.3		36.1		5.53		33.9		36.3		9.92		17.9		15.5
C=CCCC(C)N(C(=O)OC(C)(C)C)S(=O)(=O)c1ccc(C)cc1 (configuration not stated)		> 100		> 100		> 100		> 100		> 100		> 100		> 100		> 100		> 100		> 100
N/C(=N\c1nc2ccccc2s1)NC(=O)Nc1ccccc1Cl	0.134	21.6	0.0336	0.214	0.348	10.9	0.667	13.2	0.144	9.28	0.643	25.3	0.379	26.8	4.11	18.7	0.122	5.57	0.0852	3.5
O=C1/C(=C/c2ccccc2)CN(CCC(=O)N2C/C(=C\c3ccccc3)C(=O)/C(=C/c3ccccc3)C2)C/C1=C\c1ccccc1	5.19	21.9	10.7	35.3	1.71	8	22.3	64.3	0.046	0.5	24.9	> 75.2	33.1	> 91.3	18.3	43.9	1.29	11.3	0.346	4.17
COc1cc([C@@H]2c3cc4c(cc3[C@@H](NCc3ccc(C#N)cc3)C3COC(=O)[C@@H]32)OCO4)cc(OC)c1O (some centres not stated)		7.29		3.25		3.69		4.9		5.07		3.9		8.71		3.76		1.55		11.8
C[C@]12CC(C#N)C(=O)C(O)=C1CC[C@@H]1C2CC[C@@]2(C)C1CC[C@@H]2O (some centres not stated)		63.7		63.1		> 100		> 100		> 100		> 100		> 100		> 100		> 100		> 100
CC(C)c1cccc(C(C)C)c1N=C(N)C#N		> 100		> 100		> 100		> 100		> 87.3		> 100		> 100		> 100		> 93.2		> 58.6
NC(=O)c1cc(Cl)ccc1NC(=O)c1ccccc1-c1ccccc1	1.55	> 100	0.273	3.2	2.99	31.6	0.62	62.9	2.1	> 100	0.677	11.3	4.12	79.1	3.69	48	0.65	> 100	0.43	65.1

Structure (SMILES)	GI50 [1] [µM]	TGI [1] [µM]	GI50 [2] [µM]	TGI [2] [µM]	GI50 [3] [µM]	TGI [3] [µM]	GI50 [4] [µM]	TGI [4] [µM]	GI50 [5] [µM]	TGI [5] [µM]	GI50 [6] [µM]	TGI [6] [µM]	GI50 [7] [µM]	TGI [7] [µM]	GI50 [8] [µM]	TGI [8] [µM]	GI50 [9] [µM]	TGI [9] [µM]	GI50 [10] [µM]	TGI [10] [µM]
NNC(=O)CCC(=O)Nc1ccc(Cl)cc1Cl		> 100		> 100		> 100		> 100		> 100		> 100		> 100		> 100		> 100		> 100
CN(C)c1ccc2cc(-c3cc4c(oc3=O)-c3ccccc3OC4O)c(=O)oc2c1 (configuration not stated)	5.07	12	5.96	24	6.99	20.2	5.98	14.6	0.439	4.71	5.96	19.8	5.35	12.8	6.63	19.8	5.85	15.7	1.44	> 25
Cc1cccc2c1O/C(=C\c1ncc([N+](=O)[O-])n1C)C2=O	0.217	2.92	0.781	3.36	0.881	3.59	0.185	0.474	0.589	2.01	0.812	3.83	0.576	4.45	0.257	0.66	0.371	1.64	0.0557	0.422
COc1cc(C)[nH]c(=O)c1CN1CCc2c(Cl)cc([C@H](OC)C3COC3)c(Cl)c2C1=O	> 100	> 100	> 100	> 100	> 100	> 100	> 100	> 100	> 100	> 100	> 100	> 100	> 100	> 100	> 100	> 100	> 100	> 100	> 100	> 100
O=c1ccccc(-c2ccc(-c3ccco3)cc2)c1O	0.633	73.8	0.994	> 100	0.691	33.2	2.77	26.3	0.756	> 100	1.22	24	2.79	42	0.819	82.9	0.87	12.7	0.582	15.8
CCN(CC)C(=O)CNC(=O)OC(C)(C)C		> 100		> 100		> 100		> 100		> 100		> 100		> 100		> 100		> 100		> 100
C#Cc1cccc(Nc2ncnc3ccc(-c4cnc(Cl)c(NS(C)(=O)=O)c4)cc23)c1	0.075	0.402	0.0101	0.125	0.416	1.78	0.0924	0.862	0.412	2.66	0.206	1.38	0.329	2.73			0.284	2.68	0.4	3.15
C[Si](C)(C)/C=C\CCCN1C(=O)CCC1=O		> 100		> 100		> 100		> 100		> 100		> 100		> 100		> 100		> 100		> 100
Cc1ccc(NC(=O)CC/C(CC(=O)c2ccc(Cl)cc2)=N\NC(=O)C(=O)NN)cc1C		> 100		> 100		> 100		> 100		> 100		> 100		> 100		> 100		> 100		> 100
CC(=O)O[C@H]1CCC2[C@@H]3CCC4Nc5c(cnn5-c5ccccc5)C[C@]4(C)C3CC[C@@]21C (some centres not stated)		> 100		20.2		25.3		35.1		46.2		42.4		60.1		50.3		91.5		27.5
N#Cc1nn(C2OC(COC(=O)c3ccccc3)C(OC(=O)c3ccccc3)C2OC(=O)c2ccccc2)c2nc[nH]c(=O)c12 (configuration not stated)		> 100		> 100		> 100		90.4		> 100		> 100		> 100		> 100		> 100		> 100
O=C(NC1CCN(Cc2ccccc2)CC1)c1cc(C(=O)NC2CCN(Cc3ccccc3)CC2)cc(C(=O)NC2CCN(Cc3ccccc3)CC2)c1	25.2	> 50	1.48	7.42	7.37	16.6	1.12	2.52	5.52	20.8	8.27	16.1	6.83	13.7	18.3	> 50	1.52	5.66	3.51	14
CC1=C2C(=O)C(C)(C)C=C2C(=O)[C@](C)(O)C12CC2		> 1		> 1		> 1		> 0.946		> 1		> 1		> 1		> 1		> 1		> 1
C[C@@H](NC1CCC[C@@H]1O)c1ccccc1 (some centres not stated)		> 100		> 100		> 100		> 100		> 100		> 100		> 100		> 100		> 100		> 100
CC(C(=O)c1ccccc1)C1(O)C(=O)Nc2ccccc21 (configuration not stated)		> 100		> 100		> 100		> 100		> 100		> 100		> 100		> 100		> 100		> 100

From PubChem BioAssay (NCI)
